Test results: the PolyMetriX glass transition set
± gives the standard deviation of the reports.

Row | glass transition temperature [°C] | SMILES
1 | 182.00 | *C(=O)c1ccc2c(c1)C(=O)N(c1cc(OCCCCCCCCCCCC)cc(N3C(=O)c4ccc(*)cc4C3=O)c1)C2=O (repeat unit)
2 | 213.00 | *C(=O)c1ccc2c(c1)C(=O)N(c1ccc(Cc3ccc(N4C(=O)c5ccc(*)cc5C4=O)c(C(C)(C)C)c3)cc1C(C)(C)C)C2=O (repeat unit)
3 | 404.00 ± 8.5 | *C(=O)c1ccc2c(c1)C(=O)N(c1c(C)cc(C)c(N3C(=O)c4ccc(*)cc4C3=O)c1C)C2=O (repeat unit)
4 | 101.00 | *CCCCCCCCCCCCN1C(=O)c2ccc(C(c3ccc4c(c3)C(=O)N(*)C4=O)(C(F)(F)F)C(F)(F)F)cc2C1=O (repeat unit)
5 | 207.00 | *C(=O)Nc1ccc(Oc2cccc(Oc3ccc(NC(=O)c4ccc5c(c4)C(=O)N(c4cccc(Oc6cccc(Oc7cccc(N8C(=O)c9ccc(*)cc9C8=O)c7)c6C#N)c4)C5=O)cc3)c2)cc1 (repeat unit)
6 | 73.00 | *CC(*)(C)C(=O)OCCCCCCOc1ccc(C(=O)Oc2ccc(-c3cccc(OC(=O)c4ccc(OC(=O)c5ccc(OCCCCCCCCCCCC)cc5)cc4)c3)cc2)cc1 (repeat unit)
7 | 116.00 | *c1cccc(OCCCCCCCCCCCCOc2cccc(N3C(=O)c4ccc(-c5ccc6c(c5)C(=O)N(*)C6=O)cc4C3=O)c2)c1 (repeat unit)
8 | 291.00 | *c1cc(C(=O)NCCCC)cc(N2C(=O)c3ccc(-c4ccc5c(c4)C(=O)N(*)C5=O)cc3C2=O)c1 (repeat unit)
9 | -40.00 | *CC(*)(C)C(=O)OCCCCCCCC/C=C/CCCCCCCC (repeat unit)

More lines, now with the values behind:

Row | SMILES | glass transition temperature [°C]
10 | *CCN(CCOC(=O)c1ccc(C(=O)O*)c(OCCC)c1)c1ccc(C=C(C#N)C#N)cc1 (repeat unit) | 94.00
11 | *Cc1ccccc1[Si](*)(c1ccccc1)c1ccccc1 (repeat unit) | 122.00
12 | *CC(F)(F)C(F)(F)C(F)(F)COC(=O)c1cccc(C(=O)O*)c1OCCCCC (repeat unit) | 17.00
13 | */C=C/C(COCc1ccccc1)C(*)COCc1ccccc1 (repeat unit) | -4.00
14 | *CC(*)(CC(=O)OCC)C(=O)O (repeat unit) | 135.00
15 | */C=C/C1CC(*)C2C(=O)N(c3cccc(C)c3)C(=O)C12 (repeat unit) | 206.00
16 | *C1C2CC(C1*)C([Si](C)(C)C)C2 (repeat unit) | 303.00
17 | *CCC(Cl)C(*)Cl (repeat unit) | 70.00
18 | *c1ccc(S(=O)(=O)c2ccc(-n3nc(-c4ccccc4)c4ccc(Oc5ccc6c(-c7ccccc7)nn(*)c(=O)c6c5)cc4c3=O)cc2)cc1 (repeat unit) | 294.50
19 | *OP(=O)(Oc1ccc(Br)cc1)Oc1c(C)cc(S(=O)(=O)c2cc(C)c(*)c(C)c2)cc1C (repeat unit) | 162.00
20 | *COC(=O)c1ccc(/C(C#N)=C(\c2ccc(OC)cc2)N2CCCC(*)C2)cc1 (repeat unit) | 176.00
21 | *c1ccc2c(c1)C(=O)N(c1ccc(OCCN(CCOc3ccc(N4C(=O)c5ccc(C(*)(C(F)(F)F)C(F)(F)F)cc5C4=O)cc3)c3ccc(C(C#N)=C(C#N)C#N)cc3)cc1)C2=O (repeat unit) | 218.00
22 | *CCCCC(=O)NNC(=O)c1ccc(C(=O)NNC(=O)CCCCOc2ccc(O*)c(C)c2)cc1 (repeat unit) | 150.00
23 | *CCN(*)C(=O)c1ccc(F)cc1F (repeat unit) | 108.00
24 | *c1ccc(N(c2ccc(C#N)cc2)c2ccc(N3C(=O)c4ccc(Oc5ccc(C(C)(C)c6ccc(C(C)(C)c7ccc(Oc8ccc9c(c8)C(=O)N(*)C9=O)cc7)cc6)cc5)cc4C3=O)cc2)cc1 (repeat unit) | 224.00
25 | *Oc1ccc(Oc2ccc(S(=O)(=O)c3ccc(-c4ccc(S(=O)(=O)c5ccc(*)cc5)cc4)cc3)cc2)cc1 (repeat unit) | 251.00
